The subject of this test is C. elegans. As to the kind of experiment: microbe, parasite or virus in culture. Conditions: Caenorhabditis elegans.
The mark [1] stands for this setting: 0 h, read-out: Percentage of motility inhibition 0 h, Table S2, C. elegans SS assay, 110 μM, 0 h, averages of 4 data points.
[2] abbreviates: 24 h, read-out: Percentage of motility inhibition 24 h, Table S2, C. elegans SS assay, 110 μM, 24 h, averages of 4 data points.

Read-outs that look alike come from different tables or passages of the source.

As for `OCc1ccc(O[C@@H]2O[C@H](CO)[C@@H](O)[C@H](O)[C@H]2O)cc1` [Gastrodin], the inhibition – broadly, the drop in the measured response relative to a control, in per cent – at 110 µM runs as follows: (0 h, read-out: Percentage of motility inhibition 0 h) 4%; (24 h, read-out: Percentage of motility inhibition 24 h) 8%.
`COc1c(N2CCNC(C)C2)c(F)cc2c(=O)c(C(=O)O)cn(C3CC3)c12` (stereo not shown) [Gatifloxaci n]: the inhibition at 110 µM worked out at 0% under setting [1] and 0% under setting [2].
As for `C=C[C@]12CN(C)[C@@H]3[C@H]4CO[C@H](C[C@H]41)[C@]1(C(=O)Nc4ccccc41)[C@@H]32` [Gelsemi ne], the inhibition at 110 µM by setting is: under setting [1], 0%; under setting [2], 0%.
On to `COC(=O)C1=CO[C@@H](O)[C@@H]2C(CO)=CC[C@H]12` [Genipin], for which the inhibition at 110 µM is, setting by setting: under setting [1], 0%; under setting [2], 0%.
As for `COC(=O)C1=CO[C@@H](O[C@@H]2O[C@H](CO)[C@@H](O)[C@H](O)[C@H]2O)[C@@H]2C(CO)=CC[C@H]12` [Geniposide], the inhibition at 110 µM by setting is: under setting [1], 0%; under setting [2], 0%.
As for `O=C(O)C1=CO[C@@H](O[C@@H]2O[C@H](CO)[C@@H](O)[C@H](O)[C@H]2O)[C@@H]2C(CO)=CC[C@H]12` [Geniposidic acid], the inhibition at 110 µM reads like this: under setting [1], 0%; under setting [2], 3%.
The corresponding values for `O=c1c(-c2ccc(O)cc2)coc2cc(O)cc(O)c12` [Genistein] are 5% and 2%.
For `O=c1c(-c2ccc(O)cc2)coc2cc(O[C@@H]3O[C@H](CO)[C@@H](O)[C@H](O)[C@H]3O)cc(O)c12` [Genistin], in that order: 29% and 19%.
For `COc1cc(O)c2c(=O)cc(-c3ccc(O)cc3)oc2c1` [Genkwanin], in that order: 34% and 4%.
As for `C=C[C@@H]1C2=CCOC(=O)C2=CO[C@H]1O[C@@H]1O[C@H](CO)[C@@H](O)[C@H](O)[C@H]1O` [Gentiopicroside], the inhibition at 110 µM under setting [1] is 0% and the inhibition at 110 µM under setting [2] was determined as 19%.
Regarding `CC(C)=CCC/C(C)=C/CO` [Geraniol], the inhibition at 110 µM under setting [1] stood at 0% and the inhibition at 110 µM under setting [2] was found to be 3%.
In the case of `C=C1C[C@]23C[C@@]1(O)CC[C@H]2[C@@]12C=C[C@H](O)[C@@](C)(C(=O)O1)[C@H]2[C@@H]3C(=O)O` [Gibberellic acid], the inhibition at 110 µM by setting is: under setting [1], 17%; under setting [2], 22%.
For `COc1cc(O)c2c(=O)cc(-c3ccc(OC)c(-c4c(O)cc(O)c5c(=O)cc(-c6ccc(O)cc6)oc45)c3)oc2c1` [Ginkgetin], in that order: 13% and 16%.
With `C[C@@H]1C(=O)O[C@H]2C[C@@]34[C@H]5C[C@@H](C(C)(C)C)[C@]36[C@@H](OC(=O)[C@@H]6O)O[C@@]4(C(=O)O5)[C@]21O` [Ginkgolide A], the inhibition at 110 µM by setting is: under setting [1], 2%; under setting [2], 8%.
Take `CC(C)=CCC[C@](C)(O[C@@H]1O[C@H](CO)[C@@H](O)[C@H](O)[C@H]1O)[C@H]1CC[C@]2(C)[C@@H]1[C@H](O)C[C@@H]1[C@@]3(C)CC[C@H](O)C(C)(C)[C@@H]3[C@@H](O)C[C@]12C` [Ginsenoside F1]: the inhibition at 110 µM by setting is: under setting [1], 10%; under setting [2], 2%.
For `CC(C)=CCC[C@](C)(O[C@@H]1O[C@H](CO)[C@@H](O)[C@H](O)[C@H]1O)[C@H]1CC[C@]2(C)[C@@H]1[C@H](O)C[C@@H]1[C@@]3(C)CC[C@H](O[C@@H]4O[C@H](CO)[C@@H](O)[C@H](O)[C@H]4O)C(C)(C)[C@@H]3CC[C@]12C` [Ginsenoside F2], in that order: 0% and 45%.
The corresponding values for `CC(C)=CCC[C@](C)(O[C@@H]1O[C@H](CO[C@@H]2OC[C@H](O)[C@H](O)[C@H]2O)[C@@H](O)[C@H](O)[C@H]1O)[C@H]1CC[C@]2(C)[C@@H]1[C@H](O)C[C@@H]1[C@@]3(C)CC[C@H](O)C(C)(C)[C@@H]3[C@@H](O)C[C@]12C` [Ginsenoside F3] are 2% and 34%.
For `CC(C)=CCC[C@](C)(O[C@@H]1O[C@H](CO[C@H]2O[C@H](CO)[C@@H](O)[C@@H]2O)[C@@H](O)[C@H](O)[C@H]1O)[C@H]1CC[C@]2(C)[C@@H]1[C@H](O)C[C@@H]1[C@@]3(C)CC[C@H](O)C(C)(C)[C@@H]3[C@@H](O)C[C@]12C` [Ginsenoside F5], in that order: 43% and 17%.
Regarding `CC(C)=CCC[C@](C)(O[C@@H]1O[C@H](CO[C@@H]2O[C@H](CO)[C@@H](O)[C@H](O)[C@H]2O)[C@@H](O)[C@H](O)[C@H]1O)[C@H]1CC[C@]2(C)[C@@H]1[C@H](O)C[C@@H]1[C@@]3(C)CC[C@H](O[C@@H]4O[C@H](CO)[C@@H](O)[C@H](O)[C@H]4O[C@@H]4O[C@H](CO)[C@@H](O)[C@H](O)[C@H]4O)C(C)(C)[C@@H]3CC[C@]12C` [Ginsenoside Rb1], the inhibition at 110 µM under setting [1] came out at 4% and the inhibition at 110 µM under setting [2] was 0%.
For `CC(C)=CCC[C@](C)(O[C@@H]1O[C@H](CO[C@@H]2OC[C@H](O)[C@H](O)[C@H]2O)[C@@H](O)[C@H](O)[C@H]1O)[C@H]1CC[C@]2(C)[C@@H]1[C@H](O)C[C@@H]1[C@@]3(C)CC[C@H](O[C@@H]4O[C@H](CO)[C@@H](O)[C@H](O)[C@H]4O[C@@H]4O[C@H](CO)[C@@H](O)[C@H](O)[C@H]4O)C(C)(C)[C@@H]3CC[C@]12C` [Ginsenoside Rb2], in that order: 7% and 0%.
For `CC(C)=CCC[C@](C)(O[C@@H]1O[C@H](CO[C@@H]2OC[C@@H](O)[C@H](O)[C@H]2O)[C@@H](O)[C@H](O)[C@H]1O)[C@H]1CC[C@]2(C)[C@@H]1[C@H](O)C[C@@H]1[C@@]3(C)CC[C@H](O[C@@H]4O[C@H](CO)[C@@H](O)[C@H](O)[C@H]4O[C@@H]4O[C@H](CO)[C@@H](O)[C@H](O)[C@H]4O)C(C)(C)[C@@H]3CC[C@]12C` [Ginsenoside Rb3], the inhibition at 110 µM is, setting by setting: under setting [1], 6%; under setting [2], 1%.
The corresponding values for `CC(C)=CCC[C@](C)(O[C@@H]1O[C@H](CO[C@@H]2O[C@@H](CO)[C@H](O)[C@H]2O)[C@@H](O)[C@H](O)[C@H]1O)[C@H]1CC[C@]2(C)[C@@H]1[C@H](O)C[C@@H]1[C@@]3(C)CC[C@H](O[C@@H]4O[C@H](CO)[C@@H](O)[C@H](O)[C@H]4O[C@@H]4O[C@H](CO)[C@@H](O)[C@H](O)[C@H]4O)C(C)(C)[C@@H]3CC[C@]12C` [Ginsenoside Rc] are 0% and 0%.
For `CC(C)=CCC[C@](C)(O[C@@H]1O[C@H](CO)[C@@H](O)[C@H](O)[C@H]1O)[C@H]1CC[C@]2(C)[C@@H]1[C@H](O)C[C@@H]1[C@@]3(C)CC[C@H](O[C@@H]4O[C@H](CO)[C@@H](O)[C@H](O)[C@H]4O[C@@H]4O[C@H](CO)[C@@H](O)[C@H](O)[C@H]4O)C(C)(C)[C@@H]3CC[C@]12C` [Ginsenoside Rd], in that order: 4% and 4%.
The corresponding values for `CC(C)=CCC[C@](C)(O[C@@H]1O[C@H](CO)[C@@H](O)[C@H](O)[C@H]1O)[C@H]1CC[C@]2(C)[C@@H]1[C@H](O)C[C@@H]1[C@@]3(C)CC[C@H](O)C(C)(C)[C@@H]3[C@@H](O[C@@H]3O[C@H](CO)[C@@H](O)[C@H](O)[C@H]3O[C@@H]3O[C@@H](C)[C@H](O)[C@@H](O)[C@H]3O)C[C@]12C` [Ginsenoside Re] are 0% and 0%.
On to `CC(C)=CCC[C@](C)(O)[C@H]1CC[C@]2(C)[C@@H]1[C@H](O)C[C@@H]1[C@@]3(C)CC[C@H](O)C(C)(C)[C@@H]3[C@@H](O[C@@H]3O[C@H](CO)[C@@H](O)[C@H](O)[C@H]3O[C@@H]3O[C@H](CO)[C@@H](O)[C@H](O)[C@H]3O)C[C@]12C` [Ginsenoside Rf], for which the inhibition at 110 µM by setting is: under setting [1], 0%; under setting [2], 0%.
Turning to `CC(C)=CCC[C@](C)(O[C@@H]1O[C@H](CO)[C@@H](O)[C@H](O)[C@H]1O)[C@H]1CC[C@]2(C)[C@@H]1[C@H](O)C[C@@H]1[C@@]3(C)CC[C@H](O)C(C)(C)[C@@H]3[C@@H](O[C@@H]3O[C@H](CO)[C@@H](O)[C@H](O)[C@H]3O)C[C@]12C` [Ginsenoside Rg1], the inhibition at 110 µM is 0% under setting [1] and 0% under setting [2].
On to `CC(C)=CCC[C@](C)(O)[C@H]1CC[C@]2(C)[C@@H]1[C@H](O)C[C@@H]1[C@@]3(C)CC[C@H](O)C(C)(C)[C@@H]3[C@@H](O[C@@H]3O[C@H](CO)[C@@H](O)[C@H](O)[C@H]3O[C@@H]3O[C@@H](C)[C@H](O)[C@@H](O)[C@H]3O)C[C@]12C` [Ginsenoside Rg2], for which the inhibition at 110 µM by setting is: under setting [1], 8%; under setting [2], 0%.
As to `CC(C)=CC/C=C(\C)[C@H]1CC[C@]2(C)[C@@H]1[C@H](O)C[C@@H]1[C@@]3(C)CC[C@H](O[C@@H]4O[C@H](CO)[C@@H](O)[C@H](O)[C@H]4O[C@@H]4O[C@H](CO)[C@@H](O)[C@H](O)[C@H]4O)C(C)(C)[C@@H]3CC[C@]12C` [Ginsenoside Rg5], the inhibition at 110 µM by setting is: under setting [1], 0%; under setting [2], 2%.
The corresponding values for `CC(C)=CCC[C@](C)(O)[C@H]1CC[C@]2(C)[C@@H]1[C@H](O)C[C@@H]1[C@@]3(C)CC[C@H](O)C(C)(C)[C@@H]3[C@@H](O[C@@H]3O[C@H](CO)[C@@H](O)[C@H](O)[C@H]3O)C[C@]12C` [Ginsenoside Rh1] are 0% and 9%.
For `CC(C)=CCC[C@](C)(O)[C@H]1CC[C@]2(C)[C@@H]1[C@H](O)C[C@@H]1[C@@]3(C)CC[C@H](O[C@@H]4O[C@H](CO)[C@@H](O)[C@H](O)[C@H]4O)C(C)(C)[C@@H]3CC[C@]12C` [Ginsenoside Rh2], in that order: 34% and 38%.
Take `CC1(C)C=Cc2c(ccc3c2OC[C@@H](c2ccc(O)cc2O)C3)O1` [Glabridin]: the inhibition at 110 µM under setting [1] came to 26% and the inhibition at 110 µM under setting [2] amounted to 6%.
Consider `CC(C)=CCc1cc([C@@H]2CC(=O)c3ccc(O)c(CC=C(C)C)c3O2)ccc1O` [Glabrol], for which the inhibition at 110 µM under setting [1] stood at 11% and the inhibition at 110 µM under setting [2] came to 9%.

The record behind these values is article PMC11855827, “High-Throughput Screening of Five Compound Libraries for Anthelmintic Activity and Toxicity Leads to the Discovery of Two Flavonoid Compounds” (International Journal of Molecular Sciences, 2025).
